Measured values reported in PMC6117563, “A structurally derived model of subunit‐dependent NMDA receptor function” (The Journal of Physiology, 2018).

What was measured:
GluN1/GluN2A receptors = biological target: T1, GluN1/GluN2A receptors (Rattus norvegicus, UniProt Q00959); test: Least squares fitting of kinetic model to macroscopic currents from excised outside‐out patches (1 mM or 3 μM glutamate for 1 s); format: cell-based; details: macroscopic fit
T1 construct: expressed in transfected cells; host or cells: HEK 293 cells
Method: (§1) Cells were transfected using FuGENE 6 (Roche Diagnostics, Basel, Switzerland) with cDNA encoding green fluorescent protein (GFP), wild type GluN1‐1a (GenBank accession numbers U11418 and U08261; hereafter GluN1), and GluN2A (D13211) and GluN2B (U11419) at a ratio of 5:1:1 (GFP:GluN1:GluN2); total cDNA was 0.2 mg ml^−1. All rat NMDA receptor subunit cDNAs were provided by Drs Heinemann (Salk Institute) and Nakanishi (Kyoto University). After transfection, the HEK cells were incubated for 12–24 h (timed to optimize observation of patches with a single active channel) in media supplemented with D,L‐2‐amino‐5‐phosphonovalerate (DL‐AP‐5) and 7‐chlorokynurenic acid (both at 200 μM) prior to patch clamp recordings.

[1] = biological target: T2, GluN1/GluN2AC1/GluN2BC2 triheteromeric receptors (Rattus norvegicus, UniProt P35439+Q00959+Q00960, A876H/F846L/G856D/H848F/K857R/M851T/M860L/Q845K/V861L); test: Whole cell current recordings, ifenprodil block of peak current response to glutamate plus glycine in transfected HEK cells; format: cell-based; details: 3 μM ifenprodil
T2 construct: expressed in transfected cells; host or cells: HEK 293 cells
Method: as §1
(§2) All GluN2 cDNAs used for whole cell current recordings encoded a fusion protein containing the GluN2A C‐terminal domain fused to coiled‐coil C1 and C2 peptide tags followed by an endoplasmic reticulum (ER) retention signal fused in frame to the C‐terminal. This allowed control of the stoichiometry of GluN2 in surface receptors, as previously described (Hansen et al. 2014). The vector containing GluN1 also independently expressed GFP and was provided by Dr Kasper Hansen (University of Montana). […]

[2] = biological target: T3, GluN2AC1‐P552R/GluN2BC2 triheteromeric receptors (Rattus norvegicus, UniProt P35439+Q00959+Q00960, A876H/F846L/G856D/H848F/K857R/M851T/M860L/Q845K/V861L); test: Whole cell current recordings, ifenprodil block of peak current in transfected HEK cells; format: cell-based; details: 3 μM ifenprodil; n = 9
T3 construct: expressed in transfected cells; host or cells: HEK 293 cells
Method: as §1, §2

[3] = test system: GluN2AC1‐P552R/GluN2BC2‐P553R triheteromeric receptors; test: as above; format: cell-based, rat; details: 3 μM ifenprodil; n = 9
Method: as §1, §2

[4] = biological target: T2, GluN1/GluN2AC1/GluN2BC2 triheteromeric receptors; parameters: method as in Hatton & Paoletti, 2005; Hansen et al. 2014; details: 3 μM ifenprodil; ref Hatton & Paoletti, 2005; Hansen et al. 2014; cited from earlier work
[5] = test system: diheteromeric GluN1/GluN2BC2 receptors; parameters: method as in Hatton & Paoletti, 2005; Hansen et al. 2014; details: 3 μM ifenprodil; ref Hatton & Paoletti, 2005; Hansen et al. 2014; cited from earlier work
[6] = model of Fig. A2 (opening only after all four pre‐gating steps)
[7] = model of Figs 5 and 6, saturating glycine (100 μM), pH 8.0

T1 sequence (Q00959 23-1464, other chains not shown): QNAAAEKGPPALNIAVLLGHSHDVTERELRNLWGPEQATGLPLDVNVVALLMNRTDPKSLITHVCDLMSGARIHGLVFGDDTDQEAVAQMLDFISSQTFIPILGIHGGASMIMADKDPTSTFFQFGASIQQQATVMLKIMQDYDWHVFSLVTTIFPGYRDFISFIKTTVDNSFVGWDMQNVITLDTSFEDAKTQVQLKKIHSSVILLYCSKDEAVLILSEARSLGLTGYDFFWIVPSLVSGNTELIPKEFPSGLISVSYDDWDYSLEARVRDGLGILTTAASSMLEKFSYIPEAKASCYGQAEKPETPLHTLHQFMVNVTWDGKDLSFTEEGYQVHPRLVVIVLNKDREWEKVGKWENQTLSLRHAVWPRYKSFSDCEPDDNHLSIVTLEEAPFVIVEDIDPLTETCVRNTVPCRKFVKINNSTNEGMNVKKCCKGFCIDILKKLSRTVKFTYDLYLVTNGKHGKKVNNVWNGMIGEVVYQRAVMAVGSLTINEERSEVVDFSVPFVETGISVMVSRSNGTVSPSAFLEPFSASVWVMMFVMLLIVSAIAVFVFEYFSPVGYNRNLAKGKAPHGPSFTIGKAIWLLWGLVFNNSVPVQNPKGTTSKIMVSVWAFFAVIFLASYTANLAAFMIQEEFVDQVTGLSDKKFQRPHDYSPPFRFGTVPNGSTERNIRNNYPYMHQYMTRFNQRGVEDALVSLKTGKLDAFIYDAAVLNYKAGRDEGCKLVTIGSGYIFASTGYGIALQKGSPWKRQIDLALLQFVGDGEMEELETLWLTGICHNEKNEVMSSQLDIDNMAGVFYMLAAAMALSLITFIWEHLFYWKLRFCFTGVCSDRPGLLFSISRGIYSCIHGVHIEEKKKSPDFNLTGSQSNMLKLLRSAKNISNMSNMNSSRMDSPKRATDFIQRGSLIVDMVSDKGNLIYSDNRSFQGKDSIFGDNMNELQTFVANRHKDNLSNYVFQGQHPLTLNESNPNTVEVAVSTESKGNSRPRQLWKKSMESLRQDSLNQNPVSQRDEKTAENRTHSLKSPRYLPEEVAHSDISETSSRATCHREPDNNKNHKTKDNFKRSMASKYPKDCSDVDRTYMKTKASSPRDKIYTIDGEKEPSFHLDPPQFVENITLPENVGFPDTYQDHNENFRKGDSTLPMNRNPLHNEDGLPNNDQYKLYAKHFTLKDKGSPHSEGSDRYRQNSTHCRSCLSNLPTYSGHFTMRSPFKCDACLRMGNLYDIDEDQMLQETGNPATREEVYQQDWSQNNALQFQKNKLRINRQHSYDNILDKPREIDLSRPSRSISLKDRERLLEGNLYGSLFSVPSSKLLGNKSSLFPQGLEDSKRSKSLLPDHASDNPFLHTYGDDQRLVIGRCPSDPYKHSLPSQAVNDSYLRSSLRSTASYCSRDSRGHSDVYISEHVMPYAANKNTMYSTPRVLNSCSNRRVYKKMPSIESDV
T2 sequence (Q00960+Q00959 fused with the stated changes, other chains not shown): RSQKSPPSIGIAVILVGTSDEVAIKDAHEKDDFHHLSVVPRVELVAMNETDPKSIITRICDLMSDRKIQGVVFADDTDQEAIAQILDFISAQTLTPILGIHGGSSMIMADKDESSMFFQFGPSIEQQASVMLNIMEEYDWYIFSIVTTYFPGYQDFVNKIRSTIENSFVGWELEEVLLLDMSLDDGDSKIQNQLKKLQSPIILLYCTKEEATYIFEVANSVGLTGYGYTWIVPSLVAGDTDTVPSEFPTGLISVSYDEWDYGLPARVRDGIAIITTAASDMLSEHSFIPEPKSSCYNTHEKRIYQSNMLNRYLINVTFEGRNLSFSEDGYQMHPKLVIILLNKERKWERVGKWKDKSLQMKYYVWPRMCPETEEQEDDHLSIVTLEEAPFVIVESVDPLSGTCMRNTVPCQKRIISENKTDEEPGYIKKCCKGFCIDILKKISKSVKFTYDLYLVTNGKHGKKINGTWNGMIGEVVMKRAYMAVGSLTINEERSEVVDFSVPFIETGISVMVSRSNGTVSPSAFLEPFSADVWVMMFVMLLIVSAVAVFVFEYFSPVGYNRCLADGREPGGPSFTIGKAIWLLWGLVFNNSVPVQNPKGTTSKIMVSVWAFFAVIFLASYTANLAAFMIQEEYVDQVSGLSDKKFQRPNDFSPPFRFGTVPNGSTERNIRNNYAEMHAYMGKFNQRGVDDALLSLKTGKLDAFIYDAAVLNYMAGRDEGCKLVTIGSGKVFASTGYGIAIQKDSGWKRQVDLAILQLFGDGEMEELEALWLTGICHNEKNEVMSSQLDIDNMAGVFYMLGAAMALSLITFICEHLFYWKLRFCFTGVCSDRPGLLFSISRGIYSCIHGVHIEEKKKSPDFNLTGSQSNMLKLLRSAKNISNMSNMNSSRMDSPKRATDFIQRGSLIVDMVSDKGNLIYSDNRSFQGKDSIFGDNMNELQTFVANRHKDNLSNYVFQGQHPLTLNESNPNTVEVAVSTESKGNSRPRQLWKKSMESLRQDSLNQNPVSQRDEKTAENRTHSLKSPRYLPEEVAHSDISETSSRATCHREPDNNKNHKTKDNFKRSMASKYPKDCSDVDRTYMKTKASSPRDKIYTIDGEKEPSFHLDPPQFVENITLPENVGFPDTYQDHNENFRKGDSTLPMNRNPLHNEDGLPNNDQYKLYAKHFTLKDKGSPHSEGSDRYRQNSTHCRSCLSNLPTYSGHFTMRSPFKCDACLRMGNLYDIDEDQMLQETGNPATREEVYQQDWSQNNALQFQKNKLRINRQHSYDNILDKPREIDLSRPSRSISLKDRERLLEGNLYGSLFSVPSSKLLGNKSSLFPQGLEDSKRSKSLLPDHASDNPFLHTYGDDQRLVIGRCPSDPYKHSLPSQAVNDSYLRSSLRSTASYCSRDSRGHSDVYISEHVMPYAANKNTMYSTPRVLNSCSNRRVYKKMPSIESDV
T3 sequence (Q00960+Q00959 fused with the stated changes, other chains not shown): as above

Compound | glutamate association rate k +A (GluN1/GluN2A receptors; [6]) | glutamate dissociation rate k −A (GluN1/GluN2A receptors; [6]) | glutamate dissociation rate k −A (GluN1/GluN2A receptors; [7]) | microscopic glutamate association rate k +A (GluN1/GluN2A receptors; [7]) | block of the current amplitude [1] | reduction of peak current [2] | reduction of peak current [3] | expected reduction of triheteromeric peak current [4] | expected reduction of peak current [5]
N[C@@H](CCC(=O)O)C(=O)O [glutamate] | 1.3e+07 M⁻¹ s⁻¹ | 483 s⁻¹ | 65 s⁻¹ | 6.7e+06 M⁻¹ s⁻¹ | – | – | – | – | –
CC(C(O)c1ccc(O)cc1)N1CCC(Cc2ccccc2)CC1 (stereo not drawn) [ifenprodil] | – | – | – | – | 38% | 58 ± 5.5% | 43 ± 6.1% | ~30% | ~90%
